# Laboratory results published in ChEMBL document CHEMBL1150925, “Gibbilimbols A-D, cytotoxic and antibacterial alkenylphenols from Piper gibbilimbum” (J Nat Prod, 1998).
# The source made the active and inactive calls. No cut-off for these calls is given here.
# What was measured:
# Bacillus cereus [1] = assay: Antibacterial activity against Bacillus cereus after 24 hrs by broth microdilution method; format: functional
# Bacillus cereus [2] = assay: Antibacterial activity against Bacillus cereus at 60 ug/disk by paper disk diffusion technique; format: functional; details: read-out: IZ
# KB = assay: Cytotoxicity against human KB cells; format: functional; details: read-out: ED50 (the source's name)
# [3] = Toxicity in Artemia salina; format: organism-based; details: in vivo, read-out: LD50 (the source's name)
# [4] = test system: Staphylococcus epidermidis; assay: Antibacterial activity against Staphylococcus epidermidis at 60 ug/disk by paper disk diffusion technique; format: functional; details: read-out: IZ
# Pseudomonas aeruginosa = assay: Antibacterial activity against Pseudomonas aeruginosa at 60 ug/disk by paper disk diffusion technique; format: functional, organism-based
# [5] = test system: Staphylococcus epidermidis; assay: Antibacterial activity against Staphylococcus epidermidis after 24 hrs by broth microdilution method; format: functional
SMILES,MIC (Bacillus cereus [1]) [µg/mL],zone of inhibition at 60 µg/disc (Bacillus cereus [2]) [mm],EC50 (KB) [µg/mL],LC50 [3] [µg/mL],zone of inhibition at 60 µg/disc [4] [mm],Activity (Pseudomonas aeruginosa),MIC [5] [µg/mL]
CCCCCC/C=C/CCc1ccc(O)cc1 [GIBBILIMBOL B],4,< 2,3.9,4.9,< 2,inactive,2
CCCC/C=C/CCc1ccc(O)cc1 [GIBBILIMBOL D],2,< 2,2.1,5,< 2,inactive,2
CCC/C=C/CCCc1ccc(O)cc1 [GIBBILIMBOL C],2,< 2,7.8,5.5,< 2,inactive,2
O=C(N[C@H](CO)[C@H](O)c1ccc([N+](=O)[O-])cc1)C(Cl)Cl [CHLORAMPHENICOL],4,–,–,–,–,–,8
CCCCC/C=C/CCCc1ccc(O)cc1 [GIBBILIMBOL A],4,< 2,4.4,5.3,< 2,inactive,4
